Patent publication US4147787A, “4,5,6,7-Tetrahydro-thieno[2,3-c]-and [3,2-c]-pyridines, and therapeutic compositions containing the same” (Parcor, priority 1977, dated 1979)

Columns and labels:
[1] = system: rat globules (red corpuscles); experiment: In vitro anti-sludge activity, preventive treatment (protamine sulfate); type: cell-based
Description: Said activity was investigated in vitro and in vivo in rats.
Thrice washed rat globules are diluted to 1/250 in physiological saline. In each of 5 tubes are placed 0.6 ml of this suspension and 0.2 ml physiological saline. To each tube is then added 0-25-50-100 and 200 μg, respectively, of the test derivative contained in 0.2 ml solution. After incubation for one hour at 37° C., 0.2 ml of a solution containing 125 μg/ml protamine sulfate are added, after which the tube is then incubated again for 0.5 hour at 37° C. The globules of each tube are then examined with a Mallases cell, and the percent free globules and the percent aggregates formed by 2, 3, 4, 5 etc.. globules is then recorded.

[2] = Acute toxicity (LD50, method according to Miller and Tainter); settings: mouse, in vivo, mice, intravenous, read-out: LD50 /24h/kg body weight
[3] = system: Collagen-induced blood-platelet aggregation; experiment: Collagen-induced blood-platelet aggregation; type: in vivo, Wistar rats; settings: Rattus norvegicus, po; 100 mg/kg orally, rats, 3 hours after treatment; read-out: Percent inhibition of blood-platelet aggregation, Collagen
Description: (§1) A blood sample is taken from the jugular vein of Wistar rats. From this citrated blood and after centifugation, a plasma is reconstituted which contains 600,000 ± 20,000 blood-platelets per ml, which plasma is then used in all aggregation determinations.
(§2) 0.4 ml plasma is placed in a siliconized tube provided with a magnet bar, also siliconized. The tube is introduced into an aggregometer connected to an apparatus which records optical density variations. When light transmission has attained a stable value, 0.5 ml of a solution containing 10 μM A.D.P. (adenosinediphosphate) is added to the tube.
(§3) Blood-platelet aggregation induces an increase of light transmission, followed by a decrease subsequent to the deaggregation phase.
The A.D.P. solution is substituted with a collagen (bovine tendon extract) solution.
(§4) Different groups of 20 rats each are used, each group being orally administered 100 mg/kg of a test derivative.

[4] = system: A.D.P. induced blood-platelet aggregation; experiment: A.D.P. induced blood-platelet aggregation; type: in vivo, Wistar rats; settings: Rattus norvegicus, po; 100 mg/kg orally, rats, 3 hours after treatment, 10 μM A.D.P. solution; read-out: Percent inhibition of blood-platelet aggregation, A.D.P.
Description: as §1, §2, §3, §4

O=C(O)[C@@H]1NCc2ccsc2[C@@H]1O (relative stereo) [Example 1, 6-Carboxy-7-hydroxy-4,5,6,7-tetrahydro-thieno[3,2-c]pyridine]
11%: percent agglomerates, size 3 ([1]; 25 μg)
3%: percent agglomerates, size 4 ([1]; 100 μg)
24%: percent agglomerates, size 2 ([1]; 50 μg)
25%: percent agglomerates, size 2 ([1]; 25 μg)
86%: percent free red corpuscles (size of agglomerates 1) ([1]; 100 μg)
69%: percent free red corpuscles (size of agglomerates 1) ([1]; 50 μg)
64%: percent free red corpuscles (size of agglomerates 1) ([1]; 25 μg)
9%: percent agglomerates, size 2 ([1]; 200 μg)
2%: percent agglomerates, size 4 ([1]; 50 μg) | percent agglomerates, size 3 ([1]; 200 μg)
0%: percent agglomerates, size 4 ([1]; 25 μg) | percent agglomerates, size 5 ([1]; 25 μg) | percent agglomerates, size 6 ([1]; 25 μg) | percent agglomerates, size 7 ([1]; 25 μg) | percent agglomerates, size 8 ([1]; 25 μg) | percent agglomerates, size 9 ([1]; 25 μg) | percent agglomerates, size 10 ([1]; 25 μg) | percent agglomerates, size 11 ([1]; 25 μg) | percent agglomerates, size 12 ([1]; 25 μg) | percent agglomerates, size 13 ([1]; 25 μg) | percent agglomerates, size 5 ([1]; 50 μg) | percent agglomerates, size 6 ([1]; 50 μg) | percent agglomerates, size 7 ([1]; 50 μg) | percent agglomerates, size 8 ([1]; 50 μg) | percent agglomerates, size 9 ([1]; 50 μg) | percent agglomerates, size 10 ([1]; 50 μg) | percent agglomerates, size 11 ([1]; 50 μg) | percent agglomerates, size 12 ([1]; 50 μg) | percent agglomerates, size 13 ([1]; 50 μg) | percent agglomerates, size 5 ([1]; 100 μg) | percent agglomerates, size 6 ([1]; 100 μg) | percent agglomerates, size 7 ([1]; 100 μg) | percent agglomerates, size 8 ([1]; 100 μg) | percent agglomerates, size 9 ([1]; 100 μg) | percent agglomerates, size 10 ([1]; 100 μg) | percent agglomerates, size 11 ([1]; 100 μg) | percent agglomerates, size 12 ([1]; 100 μg) | percent agglomerates, size 13 ([1]; 100 μg) | percent agglomerates, size 4 ([1]; 200 μg) | percent agglomerates, size 5 ([1]; 200 μg) | percent agglomerates, size 6 ([1]; 200 μg) | percent agglomerates, size 7 ([1]; 200 μg) | percent agglomerates, size 8 ([1]; 200 μg) | percent agglomerates, size 9 ([1]; 200 μg) | percent agglomerates, size 10 ([1]; 200 μg) | percent agglomerates, size 11 ([1]; 200 μg) | percent agglomerates, size 12 ([1]; 200 μg) | percent agglomerates, size 13 ([1]; 200 μg)
4%: percent agglomerates, size 3 ([1]; 100 μg)
5%: percent agglomerates, size 3 ([1]; 50 μg)
7%: percent agglomerates, size 2 ([1]; 100 μg)
118 mg/kg: LD50 at 24 h [2]
89%: percent free red corpuscles (size of agglomerates 1) ([1]; 200 μg)
95.8%: inhibition at 100 mg/kg [3]
63.8%: inhibition at 100 mg/kg [4]

O=C(O)C1Cc2sccc2CN1 (centres unmarked) [Example 2, 6-Carboxy-4,5,6,7-tetrahydro-thieno[3,2-c]pyridine]
235 mg/kg: LD50 at 24 h [2]
